Earlier results as cited in patent US12534749B2, “Monoacylated MEL-producing microorganism” (NATIONAL INSTITUTE OF ADVANCED INDUSTRIAL SCIENCE AND …, priority 2019, dated 2026).

Conditions: known value, T. Fukuoka et al., Carbohydrate Research 351 (2012) 81-86

## diacylated MEL-B
  CMC: 3.1 µM
